From patent publication US6875452B1, “Inhibitor and preservative formulation” (priority 1997, dated 2005)

Assays:
[1] = literature [20,21]; cited from earlier work
[2] = system: Salmonella enteriditis 4444; experiment: Viable count of S. enteriditis in TSB with trans-anethole, fenchone, estragole, methyl paraben and combinations (Experimental Procedure 2); assay type: cell-based; details: for inhibition of S. enteriditis in words: 0.1%, over the 48 hr period; for log10 of the mean count ± 1 SEM: 37° C., preservatives at 0.1%
Procedure: (§1) Listeria monocytogenes 11994 and Salmonella enteriditis 4444 were purchased from the National Collection Type Culture, Porton Down, Wiltshire, UK. Each was stored in the long term in glycerol at −20° C., in the medium term on Tryptone Soya Agar (TSA) slopes and in the short term on TSA plates. All agar and broth (Tryptone Soya Broth) was purchased from Oxoid-Unipath Limited, Basingstoke, UK.
(§2) Triplicate plates were prepared for each dilution and the mean count of three plates was determined. […] Each experiment was performed on three separate occasions.
(§3) Two-tailed paired student's t-test was used to analyse inhibition caused by a combination compared to the corresponding control. Differences were judged to be statistically significant when p<0.05.
(§4) This definition is also in agreement with Mims et al.
(§5) Corresponding controls were also prepared, thus 10 μl of each overnight culture was added to the appropriate broth only. All tubes were incubated at 37° C. 1 ml samples were removed from each test and control after vortexing at 0 hrs, 1 hr, 4 hrs, 8 hrs, 24 hrs and 48 hrs and serially diluted in 0.01M PBS. 100 μl from each dilution was placed on an agar plate and spread across the surface. Plates were incubated at 37° C. and colonies counted as colony forming units per ml (cfu/ml). As ethanol was used to prepare stock solutions of methyl paraben a diluent control was used where ethanol was added to each culture medium. […] Due to the limitation of the serial dilution technique it was not possible to count cfu less than 10/ml.
(§6) Furthermore to make valid comparison about the activity of each combination against each microbe it was necessary to use just one concentration of each component with the combination. […] In addition, methyl paraben cannot be used in food in excess of 0.1% [15].

[3] = system: Listeria monocytogenes 11994; experiment: Viable count of L. monocytogenes in TSB with trans-anethole, fenchone, estragole, methyl paraben and combinations (Experimental Procedure 2); assay type: cell-based; details: for inhibition of L. monocytogenes in words: 0.1%, over 48 hrs; for log10 of the mean count ± 1 SEM: 37° C., preservatives at 0.1%
Procedure: as §1, §2, §3, §4, §5, §6

[4] = system: mice; details: high doses, literature [22,23]; cited from earlier work
[5] = system: Salmonella enteriditis 4444; experiment: Viable count of S. enteriditis in TSB with plant oils, benzoic acid, methyl paraben and combinations (Experimental Procedure 1); assay type: cell-based; details: for log10 of the mean count: 37° C.; for inhibition of S. enteriditis in words: over the 48 hr period
Procedure: (§7) Listeria monocytogenes 11994 and Salmonella […] 4444 were purchased from the National Collection Type Culture, Porton Down, Wiltshire, UK. Each was stored in the long term in glycerol at -20° C., in the medium term on Tryptone Soya Agar (TSA) slopes and in the short term on TSA plates. All agar and broth (Tryptone Soya Broth) was purchased from Oxoid-Unipath Limited, Basingstoke, UK. […] Plates were incubated at 37° C. and colonies counted as colony forming units per ml (cfu/ml). […] Oils of fennel and […] used at 0.2% and whilst oil of basil was originally used for comparative purposes at 0.2% it was later used at 0.02%. […] Several factors were considered when choosing these concentrations. […] Triplicate plates were prepared for each dilution and the mean count of three plates was determined. […] Each experiment was performed on three separate occasions. It is the mean count from three separate experiments and the corresponding standard error of the mean which are shown in the results section. Two-tailed paired student's t-test was used to analyse inhibition caused by a combination compared to the corresponding control. Differences were judged to be statistically significant when p<0.05.

[6] = system: Listeria monocytogenes 11994; experiment: Viable count of L. monocytogenes in TSB with plant oils, benzoic acid, methyl paraben and combinations (Experimental Procedure 1); assay type: cell-based; details: for log10 of the mean count: 37° C.; for inhibition of L. monocytogenes in words: over the 48 hr period
Procedure: as §7

[7] = 0 hrs (starting count, same as control)

CC12CCC(C1)C(C)(C)C2=O (stereo not shown) [Fenchone, fenchone]
toxicity in words [1]: non-toxic
inhibition of S. enteriditis in words [2]: little or no inhibition
log10 of the mean count ± 1 SEM ([2]; 1 hr): 5.8 ± 0.02 log10 cfu/ml
log10 of the mean count ± 1 SEM ([2]; 4 hrs): 6.4 ± 0.04 log10 cfu/ml
log10 of the mean count ± 1 SEM ([2]; 8 hrs): 6.9 ± 0.04Δ log10 cfu/ml
log10 of the mean count ± 1 SEM ([2]; 24 hrs): 8.6 ± 0.09Δ log10 cfu/ml
log10 of the mean count ± 1 SEM ([2]; 48 hrs): 8.5 ± 0.01Δ log10 cfu/ml
inhibition of L. monocytogenes in words [3]: most inhibitory single component
log10 of the mean count ± 1 SEM ([3]; 1 hr): 2.7 ± 0.2Δ log10 cfu/ml
log10 of the mean count ± 1 SEM ([3]; 4 hrs): 1.9 ± 0.08Δ log10 cfu/ml
count (cells undetectable) ([3]; 8 hrs and above): < 10 cfu/ml
log10 of the mean count ± 1 SEM ([3]; 8 hrs): <1.0Δ log10 cfu/ml
log10 of the mean count ± 1 SEM ([3]; 24 hrs): <0.1Δ log10 cfu/ml
log10 of the mean count ± 1 SEM ([3]; 48 hrs): <1.0Δ log10 cfu/ml

C=CCc1ccc(OC)cc1 [Estragole, estragole (4-allylanisole)]
carcinogenicity in words [4]: carcinogenic in high doses in mice
inhibition of S. enteriditis in words [2]: two most single inhibitory preservatives
log10 of the mean count ± 1 SEM ([2]; 1 hr): 2.2 ± 0.05Δ log10 cfu/ml
growth inhibited by ([2]; 4 hrs and 8 hrs): more than 5.0 log10
log10 of the mean count ± 1 SEM ([2]; 4 hrs): 1.6 ± 0.08Δ log10 cfu/ml
log10 of the mean count ± 1 SEM ([2]; 8 hrs): 1.5 ± 0.08Δ log10 cfu/ml
log10 of the mean count ± 1 SEM ([2]; 24 hrs): 4.3 ± 0.03Δ log10 cfu/ml
inhibition ([2]; 48 hrs): 2.1 log10
log10 of the mean count ± 1 SEM ([2]; 48 hrs): 6.9 ± 0.03Δ log10 cfu/ml
log10 of the mean count ± 1 SEM ([3]; 1 hr): 5.9 ± 0.05 log10 cfu/ml
log10 of the mean count ± 1 SEM ([3]; 4 hrs): 5.6 ± 0.07Δ log10 cfu/ml
log10 of the mean count ± 1 SEM ([3]; 8 hrs): 5.5 ± 0.06Δ log10 cfu/ml
log10 of the mean count ± 1 SEM ([3]; 24 hrs): 4.9 ± 0.08Δ log10 cfu/ml
log10 of the mean count ± 1 SEM ([3]; 48 hrs): 4.7 ± 0.09Δ log10 cfu/ml
inhibition of growth ([3]; after 24 hrs): more than 4 log10

COC(=O)c1ccc(O)cc1 [MP, methyl paraben]
inhibition of S. enteriditis in words [2]: little or no inhibition
log10 of the mean count ± 1 SEM ([2]; 1 hr): 6.0 ± 0.01 log10 cfu/ml
log10 of the mean count ± 1 SEM ([2]; 4 hrs): 6.3 ± 0.01 log10 cfu/ml
log10 of the mean count ± 1 SEM ([2]; 8 hrs): 6.6 ± 0.06Δ log10 cfu/ml
log10 of the mean count ± 1 SEM ([2]; 24 hrs): 8.5 ± 0.04Δ log10 cfu/ml
log10 of the mean count ± 1 SEM ([2]; 48 hrs): 8.6 ± 0.01Δ log10 cfu/ml
log10 of the mean count [5, 7]: 6.08 ± 0.03 log10 cfu/ml
log10 of the mean count ([5]; 1 hr): 6.04 ± 0.05 log10 cfu/ml
log10 of the mean count ([5]; 4 hrs): 6.32 ± 0.03 log10 cfu/ml
log10 of the mean count ([5]; 8 hrs): 6.63 ± 0.03 log10 cfu/ml
log10 of the mean count ([5]; 24 hrs): 8.36 ± 0.05 log10 cfu/ml
log10 of the mean count ([5]; 48 hrs): 8.45 ± 0.11 log10 cfu/ml
inhibition of S. enteriditis in words [5]: little inhibition
log10 of the mean count [6, 7]: 6.45 ± 0.02 log10 cfu/ml
log10 of the mean count ([6]; 1 hr): 6.49 ± 0.01 log10 cfu/ml
log10 of the mean count ([6]; 4 hrs): 7.02 ± 0.02 log10 cfu/ml
log10 of the mean count ([6]; 8 hrs): 7.86 ± 0.05 log10 cfu/ml
log10 of the mean count ([6]; 24 hrs): 9.27 ± 0.02 log10 cfu/ml
log10 of the mean count ([6]; 48 hrs): 9.24 ± 0.02 log10 cfu/ml
inhibition of L. monocytogenes in words [6]: relatively weakly inhibitory
inhibition of L. monocytogenes in words [3]: little or no inhibitory properties
log10 of the mean count ± 1 SEM ([3]; 1 hr): 6.5 ± 0.01 log10 cfu/ml
log10 of the mean count ± 1 SEM ([3]; 4 hrs): 6.9 ± 0.01 log10 cfu/ml
log10 of the mean count ± 1 SEM ([3]; 8 hrs): 7.7 ± 0.01 log10 cfu/ml
log10 of the mean count ± 1 SEM ([3]; 24 hrs): 9.3 ± 0.01 log10 cfu/ml
log10 of the mean count ± 1 SEM ([3]; 48 hrs): 9.2 ± 0.01 log10 cfu/ml

C/C=C/c1ccc(OC)cc1 [Trans-anethole]
toxicity in words [1]: non-toxic
inhibition of L. monocytogenes in words [3]: little or no inhibitory properties
log10 of the mean count ± 1 SEM ([3]; 1 hr): 6.1 ± 0.04 log10 cfu/ml
log10 of the mean count ± 1 SEM ([3]; 4 hrs): 6.3 ± 0.1 log10 cfu/ml
log10 of the mean count ± 1 SEM ([3]; 8 hrs): 6.7 ± 0.2 log10 cfu/ml
log10 of the mean count ± 1 SEM ([3]; 24 hrs): 9.0 ± 0.1 log10 cfu/ml
log10 of the mean count ± 1 SEM ([3]; 48 hrs): 9.0 ± 0.01 log10 cfu/ml

O=C(O)c1ccccc1 [BA, benzoic acid]
log10 of the mean count [5, 7]: 6.08 ± 0.03 log10 cfu/ml
log10 of the mean count ([5]; 1 hr): 6.02 ± 0.04 log10 cfu/ml
log10 of the mean count ([5]; 4 hrs): 6.46 ± 0.01 log10 cfu/ml
log10 of the mean count ([5]; 8 hrs): 7.32 ± 0.08 log10 cfu/ml
log10 of the mean count ([5]; 24 hrs): 8.67 ± 0.14 log10 cfu/ml
log10 of the mean count ([5]; 48 hrs): 8.52 ± 0.03 log10 cfu/ml
inhibition of S. enteriditis in words [5]: little inhibition
log10 of the mean count [6, 7]: 6.45 ± 0.02 log10 cfu/ml
log10 of the mean count ([6]; 1 hr): 6.33 ± 0.11 log10 cfu/ml
log10 of the mean count ([6]; 4 hrs): 7.22 ± 0.04 log10 cfu/ml
log10 of the mean count ([6]; 8 hrs): 8.16 ± 0.06 log10 cfu/ml
log10 of the mean count ([6]; 24 hrs): 9.09 ± 0.03 log10 cfu/ml
log10 of the mean count ([6]; 48 hrs): 9.0 ± 0.06 log10 cfu/ml
inhibition of L. monocytogenes in words [6]: relatively weakly inhibitory
